Results reported in patent US10947196B2, “Beta adrenergic agonist and methods of using the same” (CURASEN THERAPEUTICS, INC., priority 2019, dated 2021).
Like-named read-outs stand apart in the source and are kept apart here.

Columns and labels:
β1-adrenergic receptor = β1-adrenergic receptor (Homo sapiens (Human), UniProt P08588); experiment: cAMP Gs dynamic HTRF assay, β1 expressing CHO cells; assay type: cell-based
Procedure, shortened: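 Intracellular cAMP quantified by Eu-donor/d2-acceptor HTRF after 30 min compound exposure at 37° C in stimulation buffer with IBMX. Concentrations ran 10 μM top, 5-fold steps, 10 points. Cell lines: 1321N1 astrocytoma and CHO expressing β1 or β2; EC50 via four-parameter fit, relative efficacy against isoproterenol.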

[1] = Hepatocyte stability (rat); assay type: in vitro ADME; conditions: 0.5×10^6 viable cells/mL
Protocol: (§1) 10 mM and 100 μM stock solutions of test compound(s) and a positive control were prepared in appropriate solvent (DMSO). In separate conical tubes, the 10 mM test compound and the positive control were diluted to 100 μM by combining 198 μL of 50% acetonitrile/50% water and 2 μL of 10 mM stock. The 100 μM test compound and the positive control were diluted to 30 μM by combining 140 μL of 50% acetonitrile/50% water and 60 μL of 100 μM stock solution. The 100 μM test compound and the positive control were diluted to 10 μM by combining 180 μL of 50% acetonitrile/50% water and 20 μL of 100 μM stock solution. The 100 μM test compound and the positive control were diluted to 3 μM by combining 194 μL of 50% acetonitrile/50% water and 6 μL of 100 μM stock solution.
(§2) Incubation medium (William's E Medium supplemented with GlutaMAX) and hepatocyte thawing medium was placed in a 37° C. water bath, and allowed to warm for at least 15 minutes prior to use. A vial of cryopreserved hepatocytes from storage was then removed, ensuring that the vial remains at cryogenic temperatures until thawing process ensues. Cells were thawed by placing the vial in a 37° C. water bath and gently shaking the vial for 2 minutes. After thawing was completed, the vial was sprayed with 70% ethanol and transferred to a biosafety cabinet.
(§3) A wide-bore pipette tip was used to transfer hepatocytes into 50 mL conical tube containing thawing medium. The 50 mL conical tube was placed into a centrifuge and spun at 100 g for 10 minutes. Upon completion of spin, the thawing medium was aspirated and the hepatocytes were resuspended in enough incubation medium to yield ˜1.5×10^6 cells/mL.
(§4) Using AOPI staining solution, cells were counted and the viable cell density was determined. Cells with poor viability (<75% viability) are not acceptable for use. […]
(§5) All calculations were carried out using Microsoft Excel. Peak areas were determined from extracted ion chromatograms. […]
(§6) The in vitro half-life (in vitro t1/2) was determined from the slope value: in vitro t1/2=0.693/k

[2] = Hepatocyte stability (human); assay type: in vitro ADME; conditions: 0.5×10^6 viable cells/mL
Protocol: as §1, §2, §3, §4, §5, §6

[3] = B1-AR, CHO-K cells, read-out: Average EC50 [Receptor subtype: B1-AR, Cell type: CHO-K]

Sequence of β1-adrenergic receptor (P08588 whole entry, species assumed): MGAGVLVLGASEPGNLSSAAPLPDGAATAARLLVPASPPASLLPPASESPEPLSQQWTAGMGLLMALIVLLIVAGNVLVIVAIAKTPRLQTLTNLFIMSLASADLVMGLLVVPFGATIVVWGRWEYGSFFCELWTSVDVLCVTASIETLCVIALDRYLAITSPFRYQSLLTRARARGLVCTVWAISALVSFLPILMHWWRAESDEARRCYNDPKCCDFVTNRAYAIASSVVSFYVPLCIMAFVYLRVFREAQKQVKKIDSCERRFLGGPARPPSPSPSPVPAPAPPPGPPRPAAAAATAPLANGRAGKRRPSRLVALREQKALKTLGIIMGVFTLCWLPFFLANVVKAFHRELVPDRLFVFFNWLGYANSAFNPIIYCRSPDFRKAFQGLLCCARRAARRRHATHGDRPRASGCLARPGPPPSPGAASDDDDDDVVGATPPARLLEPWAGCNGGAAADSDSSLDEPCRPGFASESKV

Row | Structure (SMILES) | EC50 (β1-adrenergic receptor; β1 EC50 (nM), cAMP HTRF) | Hepatocyte stability, Rat [1] | Hepatocyte stability, Human [2] | Average pEC50 [Receptor subtype: B1-AR; Cell type: CHO-K1 (HitHunter)] (β1-adrenergic receptor; B1-AR) | EC50 (β1-adrenergic receptor; [3])
1 | CC(C)(C)NC[C@H](O)c1cccc(C(F)(F)F)n1 [Compound 03-3] | 10 to 100 nM | 4.59 μL/min/10^6 cells | 0.9 μL/min/10^6 cells |  | 
2 | CC(C)(C)NC[C@H](O)c1cccc(C#N)n1 [Compound 03-5, (S)-6-(2-(tert-butylamino)-1-hydroxyethyl)picolinonitrile] |  | 3.54-4.62 μL/min/10^6 cells | 0.36-0.59 μL/min/10^6 cells | C (C = <7-6) | 100 to 1000 nM
3 | Cc1ncccc1[C@@H](O)CNC(C)(C)C [Compound 03-115] |  | 20.61 μL/min/10^6 cells | 0.32 μL/min/10^6 cells | C-D | > 1000 nM
